Here are results for four compounds from patent publication US20250313556A1, “CERTAIN CHEMICAL ENTITIES, COMPOSITIONS, AND METHODS” (MRJA THERAPEUTICS, INC., priority 2022, published 2025).

In this experiment the target is c-KIT (Homo sapiens, UniProt P10721). Put plainly: c-KIT ADP-Glo biochemical assay. Here is the method: The inhibitory activity against c-KIT was measured using ADP-Glo assay. The percent (%) inhibition at each concentration of compound is calculated based on and relative to the luminescence signal in the Max and Min control wells contained within each assay plate. The Max control wells contain enzyme and substrate as 0% inhibition, and the Min control wells only contain substrate without enzyme as 100% inhibition. The concentrations and % inhibition values for tested compounds are plotted and the concentration of compound required for 50% inhibition (IC50) is determined with a four-parameter logistic dose response equation. The ability of the compounds in Table 1 to inhibit c-KIT was determined.
Sequence of c-KIT (P10721 26-976): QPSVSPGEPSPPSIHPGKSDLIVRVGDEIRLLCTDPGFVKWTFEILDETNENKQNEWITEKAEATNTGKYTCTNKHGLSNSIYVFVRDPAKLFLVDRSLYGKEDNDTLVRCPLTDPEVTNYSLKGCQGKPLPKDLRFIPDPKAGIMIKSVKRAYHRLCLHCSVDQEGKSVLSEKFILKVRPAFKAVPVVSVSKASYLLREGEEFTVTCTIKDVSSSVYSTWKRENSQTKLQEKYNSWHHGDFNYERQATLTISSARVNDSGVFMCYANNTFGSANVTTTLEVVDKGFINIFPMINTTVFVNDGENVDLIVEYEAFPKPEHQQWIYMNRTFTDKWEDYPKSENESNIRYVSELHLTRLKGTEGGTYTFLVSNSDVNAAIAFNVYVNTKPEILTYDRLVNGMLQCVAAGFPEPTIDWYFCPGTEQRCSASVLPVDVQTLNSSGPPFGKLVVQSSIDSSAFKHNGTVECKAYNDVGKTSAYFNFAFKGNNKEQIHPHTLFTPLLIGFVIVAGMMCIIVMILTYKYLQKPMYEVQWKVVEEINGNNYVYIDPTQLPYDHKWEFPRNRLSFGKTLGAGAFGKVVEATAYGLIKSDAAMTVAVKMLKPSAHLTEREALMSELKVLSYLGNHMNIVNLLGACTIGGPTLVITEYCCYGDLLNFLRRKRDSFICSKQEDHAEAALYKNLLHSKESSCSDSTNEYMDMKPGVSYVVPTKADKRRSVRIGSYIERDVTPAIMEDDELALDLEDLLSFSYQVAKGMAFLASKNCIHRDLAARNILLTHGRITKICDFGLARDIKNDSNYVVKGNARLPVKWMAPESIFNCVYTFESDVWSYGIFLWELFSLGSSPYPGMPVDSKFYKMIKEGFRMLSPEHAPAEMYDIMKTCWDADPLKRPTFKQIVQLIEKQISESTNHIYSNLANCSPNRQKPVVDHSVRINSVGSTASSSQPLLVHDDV
A general note: In ADP-Glo the light output rises with the ADP produced.

Where [1] appears, read: comparison of prior art compounds (WO 2013/033167) with example 3 (C003).

Usually IC50 stands for the concentration that inhibits the measured activity by half. Compound `COC(=O)N1CC[C@H](c2nc(-c3cc(F)c(C)c(NC(=O)c4cnc5ccccn45)c3F)no2)C1` [Compound C055, methyl (S)-3-(3-(2,5-difluoro-3-(imidazo[1,2-a]pyridine-3-carboxamido)-4-methylphenyl)-1,2,4-oxadiazol-5-yl)pyrrolidine-1-carboxylate] gave an IC50 (class ranges) of 0.1 to 1 µM.

In turn, `COC(=O)N1CCC[C@H](c2nc(-c3cc(F)c(C)c(NC(=O)c4cnc5ccccn45)c3F)no2)C1` [Compound C056, methyl (S)-3-(3-(2,5-difluoro-3-(imidazo[1,2-a]pyridine-3-carboxamido)-4-methylphenyl)-1,2,4-oxadiazol-5-yl)piperidine-1-carboxylate] registered an IC50 (class ranges) of 0.1 to 1 µM.

Under setting [1], `COC(=O)N1CC(c2nc(-c3cc(NC(=O)c4cnc5ccccn45)c(C)cc3F)no2)C1` [methyl 3-(3-(2-fluoro-5-(imidazo[1,2-a]pyridine-3-carboxamido)-4-methylphenyl)-1,2,4-oxadiazol-5-yl)azetidine-1-carboxylate, reference compound] showed a 50% inhibitory concentration (IC50) of 4.95 µM.

Consider `COC(=O)N1CC(c2nc(-c3ccc(C)c(NC(=O)c4cnc5ccccn45)c3)no2)C1` [methyl 3-(3-(3-(imidazo[1,2-a]pyridine-3-carboxamido)-4-methylphenyl)-1,2,4-oxadiazol-5-yl)azetidine-1-carboxylate, reference compound], for which, under setting [1], the 50% inhibitory concentration (IC50) is 0.172 µM.
